Experimental data published in US9181193B2, “Indenoquinolone compound, preparation method and use thereof” (Second Military Medical University, PLA, priority 2010, dated 2015).

Columns and labels:
Assay type in all cases: cell-based
[1] = test system: Colo205 (human colon cancer cells); test: MTT in vitro anti-tumor activity test, Colo205; conditions: MTT, 72 h; for Colo205 IC50: Colo205 human colon cancer cells
[2] = test system: A549 (human lung cancer cells); test: MTT in vitro anti-tumor activity test, A549; conditions: MTT, 72 h; for A549 IC50: A549 human lung cancer cells
[3] = test system: MDA-MB-435 (human breast cancer cells); test: MTT in vitro anti-tumor activity test, MDA-MB-435; conditions: MTT, 72 h; for MDA-MB-435 IC50: MDA-MB-435 human breast cancer cells
[4] = test system: HepG2 (human hepatoma cells); test: MTT in vitro anti-tumor activity test, HepG2; conditions: MTT, 72 h; for HepG2 IC50: HepG2 human hepatoma cells

| SMILES | Colo205 IC50 [1] [µg/mL] | A549 IC50 [2] [µg/mL] | MDA-MB-435 IC50 [3] [µg/mL] | HepG2 IC50 [4] [µg/mL] | Colo205 100 μg/mL IC % [1] [%] | A549 100 μg/mL IC % [2] [%] | MDA-MB-435 100 μg/mL IC % [3] [%] | HepG2 100 μg/mL IC % [4] [%] |
| --- | --- | --- | --- | --- | --- | --- | --- | --- |
| COc1ccc2c(c1)C(=O)c1c-2c(OCCN2CCCC2)nc2ccccc12 [Compound 3] | 10.97 | 14.39 | 26.55 | 24.99 | 92.33 | 99.90 | 100 | 80.79 |
| O=C1c2cc(Cl)ccc2-c2c(OCCN3CCCC3)nc3ccccc3c21 [Compound 9] | 7.10 | 5.78 | 12.28 | 15.99 | 71.11 | 100 | 100 | 82.92 |
| O=C1c2cc(Cl)ccc2-c2c(OCCn3ccnc3)nc3ccccc3c21 [Compound 10] | 31.06 | 14.48 | 15.02 | 34.93 | 80.16 | 97.57 | 99.70 | 92.06 |
| O=C1c2cc(Cl)ccc2-c2c(OCCN3CCCCC3)nc3ccccc3c21 [Compound 11] | 39.33 | 32.73 | 44.76 | 55.62 | 69.24 | 69.84 | 69.43 | 63.27 |
| COc1ccc2c(c1)C(=O)c1c-2c(OCCN(C)C)nc2ccc(OC)cc12 [Compound 13] | 1.79 | 17.27 | 4.34 | 2.47 | 96.52 | 100 | 100 | 100 |
| COc1ccc2c(c1)C(=O)c1c-2c(OCCN2CCCCC2)nc2ccc(OC)cc12 [Compound 15] | 3.13 | 6.95 | 6.88 | 5.02 | 100 | 100 | 99.08 | 100 |
| COc1ccc2c(c1)C(=O)c1c-2c(OCCCN(C)C)nc2ccc(OC)cc12 [Compound 16] | 3.49 | 2.91 | 4.09 | 3.48 | 100 | 100 | 100 | 100 |
| COc1ccc2c(c1)-c1c(OCCN(C)C)nc3ccc(OC)cc3c1C2=O [Compound 17] | 6.70 | 18.26 | 4.98 | 10.31 | 100 | 85.30 | 100 | 100 |
| COc1ccc2nc(OCCN3CCCC3)c3c(c2c1)C(=O)c1cc(Br)ccc1-3 [Compound 18] | >100 | >100 | 24.86 | >100 | 43.88 | 35.69 | 67.72 | 35.48 |
| CCN(CC)CCOc1nc2cc(OC)c(OC)cc2c2c1-c1ccc(OC)cc1C2=O [Compound 21] | 2.56 | 1.68 | 1.17 | 0.700 | 88.97 | 100 | 93.41 | 93.16 |
| COc1ccc2c(c1)C(=O)c1c-2c(OCCN2CCCC2)nc2cc(OC)c(OC)cc12 [Compound 22] | 1.30 | 1.43 | 1.85 | 8.61 | 93.84 | 97.05 | 100 | 81.69 |
| COc1ccc2c(c1)C(=O)c1c-2c(OCCN2CCCCC2)nc2cc(OC)c(OC)cc12 [Compound 24] | 5.15 | 10.32 | 8.92 | 10.78 | 98.38 | 93.92 | 90.85 | 98.55 |
| COc1ccc2c(c1)C(=O)c1c-2c(OCCCN(C)C)nc2cc(OC)c(OC)cc12 [Compound 25] | 1.15 | 2.02 | 2.66 | 1.58 | 90.36 | 100 | 85.38 | 89.70 |
| COc1cc2nc(OCCN(C)C)c3c(c2cc1OC)C(=O)c1cc(Cl)ccc1-3 [Compound 26] | 1.45 | 6.89 | 10.51 | 11.27 | 100 | 100 | 100 | 97.91 |
| COc1cc2nc(OCCn3ccnc3)c3c(c2cc1OC)C(=O)c1cc(Cl)ccc1-3 [Compound 27] | 25.50 | >100 | 91.52 | 56.61 | 66.27 | 35.12 | 51.23 | 57.51 |
| COc1cc2nc(OCCCN(C)C)c3c(c2cc1OC)C(=O)c1cc(Cl)ccc1-3 [Compound 29] | 1.47 | 1.04 | 1.45 | 3.71 | 98.69 | 100 | 100 | 91.20 |

Now from value to compound, other results behind:

| Colo205 IC50 [1] [µg/mL] | A549 IC50 [2] [µg/mL] | MDA-MB-435 IC50 [3] [µg/mL] | HepG2 IC50 [4] [µg/mL] | SMILES | Colo205 100 μg/mL IC % [1] [%] | A549 100 μg/mL IC % [2] [%] | MDA-MB-435 100 μg/mL IC % [3] [%] | HepG2 100 μg/mL IC % [4] [%] |
| --- | --- | --- | --- | --- | --- | --- | --- | --- |
| 0.427 | 1.53 | 1.99 | 2.50 | CCN(CC)CCOc1nc2ccccc2c2c1-c1ccc(OC)cc1C2=O [Compound 2] | 100 | 100 | 100 | 100 |
| 13.51 | 16.61 | >100 | >100 | COc1ccc2c(c1)C(=O)c1c-2c(OCCn2ccnc2)nc2ccccc12 [Compound 4] | 60.32 | 78.34 | 48.21 | 34.87 |
| >100 | >100 | >100 | >100 | COc1ccc2c(c1)C(=O)c1c-2c(OCCN2CCOCC2)nc2ccccc12 [Compound 5] | 43.88 | 48.72 | 19.75 | 13.97 |
| 6.46 | 15.12 | 4.91 | 22.95 | CN(C)CCOc1nc2ccccc2c2c1-c1ccc(Cl)cc1C2=O [Compound 7] | 100 | 90.29 | 100 | 100 |
| 15.16 | 28.56 | 31.62 | 28.84 | CCN(CC)CCOc1nc2ccccc2c2c1-c1ccc(Cl)cc1C2=O [Compound 8] | 99.01 | 84.24 | 100 | 73.57 |
| 1.16 | 3.04 | 0.585 | 3.19 | CN(C)CCCOc1nc2ccccc2c2c1-c1ccc(Cl)cc1C2=O [Compound 12] | 100 | 88.18 | 100 | 100 |
| 18.70 | >100 | 42.24 | >100 | COc1ccc2nc(OCCn3ccnc3)c3c(c2c1)C(=O)c1cc(Br)ccc1-3 [Compound 19] | 80.89 | 17.66 | 59.37 | 37.50 |
| >100 | >100 | >100 | >100 | COc1ccc2c(c1)C(=O)c1c-2c(OCCBr)nc2ccccc12 [Compound 30] | 21.11 | 19.48 | 31.90 | 0 |
